Values joined by “and” are separate entries in the source; they are usually repeats but may differ in a detail not shown here. Equal entries are not always repeated.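 Cultured in 96-well plates, cells were exposed to test compound for 48 hours across five concentrations. GI50 = concentration required for 50% inhibition of growth. At the TGI there is no net growth.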
Tests used:
Assay in all cases: NCI-60 cell line screen, 48 h
HT29 colon = tested on: HT29 colon
RPMI-8226 leukemia = tested on: RPMI-8226 leukemia
UACC-62 melanoma = tested on: UACC-62 melanoma
IGROV1 ovarian = tested on: IGROV1 ovarian
MDA-MB-231 breast = tested on: MDA-MB-231 breast
HL-60(TB) leukemia = tested on: HL-60(TB) leukemia
NCI-H522 lung = tested on: NCI-H522 lung
CAKI-1 renal = tested on: CAKI-1 renal
OVCAR-3 ovarian = tested on: OVCAR-3 ovarian
SF-268 CNS = tested on: SF-268 CNS

| Compound | TGI (HT29 colon) | TGI (RPMI-8226 leukemia) | TGI (UACC-62 melanoma) | TGI (IGROV1 ovarian) | TGI (MDA-MB-231 breast) | TGI (HL-60(TB) leukemia) | GI50 (HT29 colon) | GI50 (NCI-H522 lung) | TGI (NCI-H522 lung) | GI50 (RPMI-8226 leukemia) | GI50 (UACC-62 melanoma) | GI50 (IGROV1 ovarian) | GI50 (CAKI-1 renal) | TGI (CAKI-1 renal) | GI50 (OVCAR-3 ovarian) | TGI (OVCAR-3 ovarian) | GI50 (MDA-MB-231 breast) | GI50 (SF-268 CNS) | TGI (SF-268 CNS) | GI50 (HL-60(TB) leukemia) |
| --- | --- | --- | --- | --- | --- | --- | --- | --- | --- | --- | --- | --- | --- | --- | --- | --- | --- | --- | --- | --- |
| COc1ccc(C2OC(=O)c3c2ccc2ccccc32)c(C)c1 (configuration not stated) | > 100 µM | 60.9 µM | 90.5 µM | > 100 µM | > 100 µM | 5.38 µM | – | – | – | – | – | – | – | – | – | – | – | – | – | – |
| CCN1CCN(c2nc(NNC(=O)Cc3ccccc3)nc(N3CCN(C(c4ccccc4)c4ccccc4)CC3)n2)CC1 | 5.66 µM | 4.31 µM | 3.46 µM | 5.02 µM | 3.69 µM | 4.04 µM | 2240 nM | 1990 nM | 4.18 µM | 1790 nM | 1710 nM | 2030 nM | 1700 nM | 3.31 µM | 2000 nM | 4.08 µM | 1990 nM | 2060 nM | 5.06 µM | 1890 nM |
| Cl.[Pt].[c-]1ccccc1-c1ccccn1.c1ccc(P(c2ccccc2)C([PH+](c2ccccc2)c2ccccc2)[PH+](c2ccccc2)c2ccccc2)cc1 | 8.13 µM | 3.66 µM | 4.75 µM | > 100 µM | 5.24 µM | 5.32 µM | 2300 nM | 1570 nM | 7.14 µM | 525 nM | 1700 nM | 2180 nM | 1810 nM | 13.1 µM | 1590 nM | 7.99 µM | 1930 nM | 2590 nM | 20.9 µM | 1100 nM |
| C(=N\Nc1nnc2c(n1)[nH]c1ccccc12)/c1cccnc1 | > 100 µM | > 100 µM | > 100 µM | > 100 µM | > 100 µM | > 100 µM | – | – | > 100 µM | – | – | – | – | > 100 µM | – | > 100 µM | – | – | > 100 µM | – |
| CC(CN=C(CC(=O)c1ccc(Br)cc1)c1ccccc1)N=C(CC(=O)c1ccc(Br)cc1)c1ccccc1 (configuration not stated) | > 100 µM | 38.6 µM | > 100 µM | > 100 µM | > 100 µM | 68 µM | 7700 nM | 5530 nM | > 100 µM | 4370 nM | 32000 nM | 3370 nM | 67100 nM | > 100 µM | – | 14.7 µM | > 100000 nM | 29900 nM | > 100 µM | 17200 nM |
| COc1ccc(C(=O)c2cc(OC)c(OC)c(OC)c2)cc1OC(C)=O | > 100 µM | 26.8 µM | > 100 µM | > 100 µM | > 100 µM | < 0.0228 µM | 1150 nM | 17 nM | > 100 µM | 32.4 nM | 448 nM | 272 nM | 74.6 nM | > 100 µM | 29.2 nM | 0.0848 µM | 36.9 nM | 88.3 nM | > 100 µM | < 14.1 nM |
| O=C(/C=C/c1ccc(C(F)(F)F)cc1)c1ccc(Nc2nc(NCCO)nc(NCCO)n2)cc1 | 6.91 µM | 5.23 µM | 6.03 µM | 9.51 µM | 13.8 µM | 10.3 µM | 2500 nM | 2150 nM | 6.66 µM | 2120 nM | 2130 nM | 3000 nM | – | – | 2020 nM | 4.19 µM | 3290 nM | 2800 nM | 11.5 µM | 2970 nM |
| COc1ccc(-c2oc(=O)ccc2C#Cc2cc(OC)c(OC)c(OC)c2)cc1O | > 100 µM | 35.1 µM | 63.5 µM | > 100 µM | > 100 µM | 35.7 µM | 37900 nM | 8700 nM | 37.5 µM | 10900 nM | 13500 nM | 39900 nM | 32800 nM | > 100 µM | 20900 nM | 70.6 µM | 11600 nM | 15700 nM | 58.5 µM | 8960 nM |
| Cn1nc(C(F)(F)F)c(-c2ccc(Cl)c(C(F)(F)F)c2)c1-c1ccc(OCc2ccc(Cl)cc2)cc1O | 5.42 µM | 7.29 µM | 5.8 µM | 8.47 µM | 5.41 µM | 3.5 µM | 1620 nM | 1470 nM | 5.64 µM | 1980 nM | 1580 nM | 2180 nM | 1480 nM | 5.62 µM | 1660 nM | 5.8 µM | 1590 nM | 1770 nM | 7.52 µM | 1400 nM |
| COc1ccc(N2CCN(C(=O)c3ccccc3Nc3ccnc(C(F)(F)F)c3)CC2)cc1 | > 100 µM | > 100 µM | > 100 µM | 93.6 µM | > 100 µM | > 100 µM | 77100 nM | 18100 nM | > 100 µM | 9480 nM | 30900 nM | 13700 nM | 48800 nM | > 100 µM | 28500 nM | > 100 µM | > 100000 nM | > 100000 nM | > 100 µM | 32300 nM |
| O=[N+]([O-])c1cccc([N+](=O)[O-])c1S(=O)(=O)c1ccccc1 | 36.2 µM | 3.68 µM | – | 4.2 µM | 37.3 µM | 7.48 µM | – | – | – | – | – | – | – | 3.76 µM | – | 5.5 µM | – | – | 29 µM | – |
| NC(=O)CCC(NC(=O)OCc1ccccc1)C(=O)OCC(=O)c1ccccc1 (configuration not stated) | > 100 µM | > 100 µM | > 100 µM | > 100 µM | > 100 µM | > 100 µM | > 100000 nM | > 100000 nM | > 100 µM | > 100000 nM | > 100000 nM | > 100000 nM | > 100000 nM | > 100 µM | > 100000 nM | > 100 µM | > 100000 nM | > 100000 nM | > 100 µM | > 100000 nM |
| C[C@]12O[C@H](C[C@]1(O)CO)n1c3ccccc3c3c4c(c5c6ccccc6n2c5c31)CNC4=O | 3.35 µM and 1.38 µM | 1.6 µM and 1.75 µM | 1.3 µM and 1.15 µM | 3.67 µM and 4.9 µM | 2.82 µM and 3 µM | > 2.31 µM and 1.23 µM | 166 nM and 138 nM | 37.4 nM and 135 nM | 1.5 µM and 2.06 µM | 134 nM and 215 nM | 36.6 nM and 40.2 nM | 51.4 nM and 111 nM | 5.82 nM and < 16.9 nM | – | 370 nM and 391 nM | 3.31 µM and 2.76 µM | 126 nM and 151 nM | 209 nM and 222 nM | 2.56 µM and 2.86 µM | 233 nM and 92.8 nM |
| CN(C)C[C@H]1CC[C@@H](CN(C)C)C1=O | 21.1 µM | > 12.9 µM | 16.6 µM | 31.6 µM | 17.3 µM | 4.1 µM | – | 269 nM | 0.686 µM and 1.18 µM | 1170 nM | – | – | 297 nM | – | – | 16.6 µM | – | – | 25.1 µM | – |

From PubChem BioAssay (NCI)
